From PubChem BioAssay (NCI)
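96-well plates; 48 h exposure; 5 concentrations. Endpoints by linear interpolation between flanking doses. Not reached: highest tested concentration assigned. TGI: concentration producing complete growth inhibition.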

Assays:
Assay in all cases: NCI-60 cell line screen, 48 h
SF-539 CNS = system: SF-539 CNS
786-0 renal = system: 786-0 renal
SK-OV-3 ovarian = system: SK-OV-3 ovarian
TK-10 renal = system: TK-10 renal
NCI-H522 lung = system: NCI-H522 lung
T-47D breast = system: T-47D breast
SNB-75 CNS = system: SNB-75 CNS
IGROV1 ovarian = system: IGROV1 ovarian
COLO 205 colon = system: COLO 205 colon
DU-145 prostate = system: DU-145 prostate

CCC(=O)NCCc1c2c3c(ccnc3c3ncsc13)-c1ccccc1N2
TGI (SF-539 CNS): 7.52 µM
TGI (786-0 renal): > 55.4 µM
TGI (SK-OV-3 ovarian): > 100 µM
TGI (TK-10 renal): > 100 µM
TGI (NCI-H522 lung): 38.4 µM
TGI (T-47D breast): > 100 µM
TGI (SNB-75 CNS): > 88.3 µM
TGI (IGROV1 ovarian): > 100 µM
TGI (COLO 205 colon): > 100 µM
TGI (DU-145 prostate): > 100 µM

CC1OC(O[C@H]2CC[C@]3(C=O)[C@H]4CC[C@]5(C)[C@H](C6=CC(=O)OC6)CC[C@]5(O)[C@@H]4C=C[C@]3(O)C2)CC(O)C1O (stereo not given in full)
TGI (SF-539 CNS): 0.488 µM
TGI (786-0 renal): 0.296 µM
TGI (SK-OV-3 ovarian): 1.02 µM
TGI (TK-10 renal): 1.64 µM
TGI (NCI-H522 lung): 0.241 µM
TGI (T-47D breast): 1.27 µM
TGI (SNB-75 CNS): 2.31 µM
TGI (IGROV1 ovarian): 4.5 µM
TGI (COLO 205 colon): 1.91 µM
TGI (DU-145 prostate): 0.442 µM

COc1cc(C23OCC(Cc4cc5c(cc42)OCO5)C3CO)cc(OC)c1OC (stereo not given)
TGI (SF-539 CNS): 26.2 µM
TGI (786-0 renal): > 100 µM
TGI (SK-OV-3 ovarian): > 28.8 µM
TGI (TK-10 renal): > 100 µM
TGI (NCI-H522 lung): 5.11 µM
TGI (T-47D breast): > 100 µM
TGI (SNB-75 CNS): > 100 µM
TGI (IGROV1 ovarian): > 100 µM
TGI (COLO 205 colon): > 100 µM
TGI (DU-145 prostate): > 100 µM

COC(=O)C1C(C(=O)OC)C1(Br)CBr (stereo not given)
TGI (SF-539 CNS): > 100 µM
TGI (786-0 renal): 36.3 µM
TGI (SK-OV-3 ovarian): > 100 µM
TGI (TK-10 renal): > 100 µM
TGI (NCI-H522 lung): 14.1 µM
TGI (T-47D breast): 50.4 µM
TGI (SNB-75 CNS): > 100 µM
TGI (IGROV1 ovarian): > 100 µM
TGI (COLO 205 colon): 41 µM
TGI (DU-145 prostate): > 100 µM

CCN(CC)COC(=S)S
TGI (SF-539 CNS): > 100 µM
TGI (786-0 renal): > 100 µM
TGI (SK-OV-3 ovarian): > 100 µM
TGI (TK-10 renal): > 100 µM
TGI (NCI-H522 lung): > 94.7 µM
TGI (T-47D breast): > 100 µM
TGI (SNB-75 CNS): > 90.2 µM
TGI (IGROV1 ovarian): > 100 µM
TGI (COLO 205 colon): > 100 µM
TGI (DU-145 prostate): > 100 µM

O=[N+]([O-])c1sc2ccc(Cl)cc2c1Nc1ccc(Cl)cc1
TGI (SF-539 CNS): > 100 µM
TGI (786-0 renal): > 100 µM
TGI (SK-OV-3 ovarian): > 100 µM
TGI (TK-10 renal): > 100 µM
TGI (NCI-H522 lung): > 100 µM
TGI (T-47D breast): > 100 µM
TGI (SNB-75 CNS): > 100 µM
TGI (IGROV1 ovarian): > 100 µM
TGI (COLO 205 colon): > 100 µM
TGI (DU-145 prostate): > 100 µM

O=[N+]([O-])c1cccc2nc3ccccc3c(NCCCN3CCCCC3)c12
TGI (SF-539 CNS): 0.0451 µM
TGI (786-0 renal): 0.0492 µM
TGI (SK-OV-3 ovarian): 0.1 µM
TGI (TK-10 renal): 0.0712 µM
TGI (NCI-H522 lung): 0.0236 µM
TGI (T-47D breast): 0.182 µM
TGI (SNB-75 CNS): 0.0497 µM
TGI (IGROV1 ovarian): 0.0758 µM
TGI (COLO 205 colon): 0.0201 µM
TGI (DU-145 prostate): 0.0295 µM

O=C1C(Cl)C(c2cc3cc(Br)ccc3nc2Cl)N1c1c(Cl)cccc1Cl (stereo not given)
TGI (SF-539 CNS): 10.7 µM
TGI (786-0 renal): > 25 µM
TGI (SK-OV-3 ovarian): > 25 µM
TGI (TK-10 renal): > 25 µM
TGI (NCI-H522 lung): 11.3 µM
TGI (T-47D breast): > 25 µM
TGI (SNB-75 CNS): > 25 µM
TGI (IGROV1 ovarian): > 25 µM
TGI (COLO 205 colon): > 25 µM
TGI (DU-145 prostate): > 25 µM

O=S(=O)(OI(O)CC(F)(F)F)C(F)(F)F
TGI (SF-539 CNS): > 100 µM
TGI (786-0 renal): > 100 µM
TGI (SK-OV-3 ovarian): > 100 µM
TGI (TK-10 renal): > 100 µM
TGI (NCI-H522 lung): > 100 µM
TGI (T-47D breast): > 100 µM
TGI (SNB-75 CNS): > 100 µM
TGI (IGROV1 ovarian): > 100 µM
TGI (COLO 205 colon): > 100 µM
TGI (DU-145 prostate): > 100 µM

c1ccc(C2=Nc3cccc4cccc(c34)N2)cc1
TGI (SF-539 CNS): > 100 µM
TGI (786-0 renal): > 61.8 µM
TGI (SK-OV-3 ovarian): > 100 µM
TGI (TK-10 renal): > 72 µM
TGI (NCI-H522 lung): 24.8 µM
TGI (T-47D breast): 21.9 µM
TGI (SNB-75 CNS): > 100 µM
TGI (IGROV1 ovarian): > 94.5 µM
TGI (COLO 205 colon): 40.9 µM
TGI (DU-145 prostate): > 100 µM

Cc1c(-c2ccccc2)c(C#N)c2nnn(-c3cccc(Cl)c3)c(=O)n12
TGI (SF-539 CNS): > 100 µM
TGI (786-0 renal): 86.6 µM
TGI (SK-OV-3 ovarian): > 100 µM
TGI (TK-10 renal): > 100 µM
TGI (NCI-H522 lung): > 100 µM
TGI (T-47D breast): > 100 µM
TGI (SNB-75 CNS): > 100 µM
TGI (IGROV1 ovarian): > 100 µM
TGI (COLO 205 colon): > 100 µM
TGI (DU-145 prostate): > 100 µM

CCN(CC)C(=S)SS(=O)(=O)c1ccccc1[N+](=O)[O-]
TGI (SF-539 CNS): 34.1 µM
TGI (786-0 renal): 33.2 µM
TGI (SK-OV-3 ovarian): > 100 µM
TGI (TK-10 renal): > 90.3 µM
TGI (NCI-H522 lung): 2.83 µM
TGI (T-47D breast): > 100 µM
TGI (SNB-75 CNS): > 100 µM
TGI (IGROV1 ovarian): > 100 µM
TGI (COLO 205 colon): > 100 µM
TGI (DU-145 prostate): > 66.5 µM

Oc1cc(CN2COc3ccccc32)c(O)cc1CNC1CCCCC1
TGI (SF-539 CNS): 34.6 µM
TGI (786-0 renal): 34 µM
TGI (SK-OV-3 ovarian): > 100 µM
TGI (TK-10 renal): 38 µM
TGI (NCI-H522 lung): 27.8 µM
TGI (T-47D breast): 64.7 µM
TGI (SNB-75 CNS): 38.9 µM
TGI (IGROV1 ovarian): > 100 µM
TGI (COLO 205 colon): 31.2 µM
TGI (DU-145 prostate): > 100 µM

O=C1NC(S(=O)(=O)O)=NNC12c1ccccc1-c1ccccc12
TGI (SF-539 CNS): > 10 µM
TGI (786-0 renal): > 10 µM
TGI (SK-OV-3 ovarian): > 10 µM
TGI (TK-10 renal): > 10 µM
TGI (NCI-H522 lung): > 10 µM
TGI (T-47D breast): > 10 µM
TGI (SNB-75 CNS): > 10 µM
TGI (IGROV1 ovarian): > 10 µM
TGI (COLO 205 colon): > 10 µM
TGI (DU-145 prostate): > 10 µM

CC(NC(NC(C)C12CC3CC(CC(C3)C1)C2)=C(C(Cl)=C(Cl)Cl)[N+](=O)[O-])C12CC3CC(CC(C3)C1)C2 (stereo not given)
TGI (SF-539 CNS): 69 µM
TGI (786-0 renal): > 100 µM
TGI (SK-OV-3 ovarian): > 100 µM
TGI (TK-10 renal): > 100 µM
TGI (NCI-H522 lung): 24.3 µM
TGI (T-47D breast): > 100 µM
TGI (SNB-75 CNS): > 100 µM
TGI (IGROV1 ovarian): 30.1 µM
TGI (COLO 205 colon): 22.6 µM
TGI (DU-145 prostate): > 100 µM

CCN(CC)CCNc1ccc(C)c2sc3ccccc3c(=O)c12
TGI (SF-539 CNS): 8.04 µM
TGI (786-0 renal): 9.32 µM
TGI (SK-OV-3 ovarian): 18.1 µM
TGI (TK-10 renal): 11 µM
TGI (NCI-H522 lung): 5.5 µM
TGI (T-47D breast): 19.4 µM
TGI (SNB-75 CNS): 7.68 µM
TGI (IGROV1 ovarian): 13.5 µM
TGI (COLO 205 colon): 4.23 µM
TGI (DU-145 prostate): 18.3 µM
